# From publication PMC3334918, “Mutagenesis and Functional Studies with Succinate Dehydrogenase Inhibitors in the Wheat Pathogen Mycosphaerella graminicola” (PLoS ONE, 2012)
# Values joined by “and” are separate entries in the source; they are usually repeats but may differ in a detail not shown here. Identical values can stand only once.
# How the values were obtained:
# [1] = target: succinate dehydrogenase (SDH), WT (IPO323) (Zymoseptoria tritici (Mycosphaerella graminicola), UniProt F9X9V6+F9XG45+F9XH52); test: in vitro succinate: Q0/DCPIP activity test, purified mitochondria; assay type: biochemical; conditions: ±S.E. (triplicate), read-out: IC50 in vitro
# succinate dehydrogenase (SDH), WT (IPO323), sequence (F9XG45 entry or part of it): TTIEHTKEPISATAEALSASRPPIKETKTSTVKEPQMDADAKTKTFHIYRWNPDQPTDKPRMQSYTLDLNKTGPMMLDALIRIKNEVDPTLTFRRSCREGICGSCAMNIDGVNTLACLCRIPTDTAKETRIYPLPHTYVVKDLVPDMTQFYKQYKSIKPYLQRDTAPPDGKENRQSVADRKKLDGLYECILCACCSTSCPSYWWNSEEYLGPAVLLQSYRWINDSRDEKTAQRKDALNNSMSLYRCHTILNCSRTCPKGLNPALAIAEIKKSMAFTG
# succinate dehydrogenase (SDH), WT (IPO323), sequence (F9X9V6 entry or part of it): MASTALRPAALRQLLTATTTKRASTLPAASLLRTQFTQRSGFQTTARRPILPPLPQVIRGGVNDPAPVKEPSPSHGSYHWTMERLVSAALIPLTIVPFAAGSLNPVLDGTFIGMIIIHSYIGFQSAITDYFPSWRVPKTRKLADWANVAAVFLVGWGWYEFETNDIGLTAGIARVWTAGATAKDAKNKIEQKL
# succinate dehydrogenase (SDH), WT (IPO323), sequence (F9XH52 entry or part of it): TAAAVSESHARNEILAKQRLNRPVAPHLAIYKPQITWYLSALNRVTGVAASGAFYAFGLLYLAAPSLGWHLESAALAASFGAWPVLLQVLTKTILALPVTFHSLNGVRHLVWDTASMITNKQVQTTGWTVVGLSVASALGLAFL
# Procedure: (§1) To explore the sensitivity profiles conferred by amino acid substitutions at the cellular and mitochondrial level, we determined sensitivity towards 4 different compounds for 26 of the identified substitution types both in vivo using liquid culture growth (AE media) and in vitro using purified mitochondria and the succinate: Q0/DCPIP activity test (Table 3). […] Resistance factors (RF) were determined as the ratio IC50mutant/IC50WT. […] Qp site mutations are well known to influence SDH enzyme activity and stability upon catalysis, [13], [38], [41].
# (§2) Strains were grown in 1 liter TSM40 units. Cultures were inoculated at 0.05 OD600 nm and grown on a reciprocal shaker (110 rpm, 22°C) for 5 days. Cells were harvested by vacuum filtration and disrupted in liquid nitrogen using a mortar and pestle. Resultant powder was re-suspended to 10% w/v in mitochondrial extraction buffer (10 mM KHPO4 pH7.2; 10 mM KCl, 10 mM MgCl2, 0.5 M sucrose, 0.2 mM EDTA, 2 mM PMSF). Extract was clarified by centrifugation (5,000 g, 4°C for 10 minutes, 2 times), intact mitochondria were then pelleted at 10,000 g for 20 minutes at 4°C. […] This volume was transferred to conical 1.5 ml tubes and re-centrifuged, 10,000 g for 10 minutes at 4°C. […] Mitochondrial suspensions were brought to a final concentration of 10 mg ml^−1 in extraction buffer and stored at −80°C until used.
# (§3) Mitochondrial suspensions were incubated at 30°C for 30 minutes in extraction buffer supplemented with 10 mM succinate prior to enzymatic measurements.
# (§4) A reaction plate was equilibrated for 10 minutes at 30°C before starting the reaction. DCPIP reduction was conducted at 30°C and monitored at 595 nm using a HTS7000 microtiterplate reader (Perkin Elmer). For calculations a molecular extinction coefficient of ε = 17 mM^−1 cm^−1 was used.
# (§5) Inhibitor concentrations ranged between 1 mM and 0.95 nM with uniform 4× dilution factor steps (11 inhibitor concentrations+DMSO control). 96 wells plates were pre equilibrated at reaction temperature (30°C) for 10 minutes before the reactions were started by the addition of 5 µl preactivated M. graminicola mitochondrial suspension. Calculated absorbance slopes (OD/hour) were used for IC50 calculations using Graphpad Prism 5.0 software non linear curve fitting against log inhibitor concentrations.
# [2] = system: wild type IPO323 M. graminicola strain; assay type: cell-based, Mycosphaerella graminicola; conditions: minimal concentration to fully inhibit growth of WT IPO323, AE agar, 10^7 cells, 2 weeks at 20°C in the dark
# From the text: Selection plates were produced after adding 1% of a 100× DMSO solution of the active ingredients to pre-melted AE-agar.
# [3] = system: SDH C_A84I (strain Flu21); test: in vitro succinate: Q0/DCPIP activity test, purified mitochondria; assay type: biochemical, Mycosphaerella graminicola; conditions: ratio IC50mutant/IC50WT, single determination
# Procedure: as §1, §2, §3, §4, §5
# [4] = system: SDH B_H267N (strain Cbx96); test: as above; assay type: biochemical, Mycosphaerella graminicola; conditions: ratio IC50mutant/IC50WT, single determination
# Procedure: as §1, §2, §3, §4, §5
# [5] = system: SDH C_H152R (strain Izm1); test: as above; assay type: biochemical, Mycosphaerella graminicola; conditions: ratio IC50mutant/IC50WT, single determination
# Procedure: as §1, §2, §3, §4, §5
# [6] = system: SDH B_H267L (strain Cbx29); test: as above; assay type: biochemical, Mycosphaerella graminicola; conditions: ratio IC50mutant/IC50WT, single determination
# Procedure: as §1, §2, §3, §4, §5
# [7] = system: SDH D_D129S (strain Cbx101); test: as above; assay type: biochemical, Mycosphaerella graminicola; conditions: ratio IC50mutant/IC50WT, single determination
# Procedure: as §1, §2, §3, §4, §5
# [8] = system: SDH B_N225H (strain Cbx106); test: as above; assay type: biochemical, Mycosphaerella graminicola; conditions: ratio IC50mutant/IC50WT, single determination
# Procedure: as §1, §2, §3, §4, §5
# SDH C_V88D (strain Ol50) = test: as above; assay type: biochemical, Mycosphaerella graminicola; conditions: ratio IC50mutant/IC50WT, single determination
# Procedure: as §1, §2, §3, §4, §5
# [9] = system: SDH B_R265P (strain Cbx56); test: as above; assay type: biochemical, Mycosphaerella graminicola; conditions: ratio IC50mutant/IC50WT, single determination
# Procedure: as §1, §2, §3, §4, §5
# [10] = system: SDH B_H267Y (strain Cbx28); test: as above; assay type: biochemical, Mycosphaerella graminicola; conditions: ratio IC50mutant/IC50WT, single determination
# Procedure: as §1, §2, §3, §4, §5
# [11] = system: SDH B_S218F (strain Flu41); test: as above; assay type: biochemical, Mycosphaerella graminicola; conditions: ratio IC50mutant/IC50WT, single determination
# Procedure: as §1, §2, §3, §4, §5
# [12] = system: SDH D_D129G (strain Cbx67); test: as above; assay type: biochemical, Mycosphaerella graminicola; conditions: ratio IC50mutant/IC50WT, single determination
# Procedure: as §1, §2, §3, §4, §5
# SDH C_S83G (strain Flu1) = test: as above; assay type: biochemical, Mycosphaerella graminicola; conditions: ratio IC50mutant/IC50WT, single determination
# Procedure: as §1, §2, §3, §4, §5
# [13] = system: SDH B_P220L (strain Flu75); test: as above; assay type: biochemical, Mycosphaerella graminicola; conditions: ratio IC50mutant/IC50WT, single determination
# Procedure: as §1, §2, §3, §4, §5
# [14] = system: SDH B_N225I (strain Flu7); test: as above; assay type: biochemical, Mycosphaerella graminicola; conditions: ratio IC50mutant/IC50WT, single determination
# Procedure: as §1, §2, §3, §4, §5
# [15] = system: SDH B_N271K (strain Flu33); test: as above; assay type: biochemical, Mycosphaerella graminicola; conditions: ratio IC50mutant/IC50WT, single determination
# Procedure: as §1, §2, §3, §4, §5
# [16] = system: SDH B_I269V (strain Cbx1); test: as above; assay type: biochemical, Mycosphaerella graminicola; conditions: ratio IC50mutant/IC50WT, single determination
# Procedure: as §1, §2, §3, §4, §5
# [17] = system: SDH D_D129E (strain Cbx22); test: as above; assay type: biochemical, Mycosphaerella graminicola; conditions: ratio IC50mutant/IC50WT, single determination
# Procedure: as §1, §2, §3, §4, §5
# SDH C_A84V (strain Flu4) = test: as above; assay type: biochemical, Mycosphaerella graminicola; conditions: ratio IC50mutant/IC50WT, single determination
# Procedure: as §1, §2, §3, §4, §5
# SDH C_N86K (strain Izm7) = test: as above; assay type: biochemical, Mycosphaerella graminicola; conditions: ratio IC50mutant/IC50WT, single determination
# Procedure: as §1, §2, §3, §4, §5
# [18] = system: SDH D_D129T (strain Flu29); test: as above; assay type: biochemical, Mycosphaerella graminicola; conditions: ratio IC50mutant/IC50WT, single determination, FR** (full resistance) = no sufficient inhibition detected at highest inhibitor concentration tested
# Procedure: as §1, §2, §3, §4, §5
# [19] = system: SDH C_T79I (strain Bos64); test: as above; assay type: biochemical, Mycosphaerella graminicola; conditions: ratio IC50mutant/IC50WT, single determination
# Procedure: as §1, §2, §3, §4, §5
# [20] = system: SDH B_P220T (strain Flu110); test: as above; assay type: biochemical, Mycosphaerella graminicola; conditions: ratio IC50mutant/IC50WT, single determination
# Procedure: as §1, §2, §3, §4, §5
# [21] = system: SDH C_L85P (strain Cbx12); test: as above; assay type: biochemical, Mycosphaerella graminicola; conditions: ratio IC50mutant/IC50WT, single determination
# Procedure: as §1, §2, §3, §4, §5
# [22] = system: SDH B_H267Q (strain Bos59); test: as above; assay type: biochemical, Mycosphaerella graminicola; conditions: ratio IC50mutant/IC50WT, single determination
# Procedure: as §1, §2, §3, §4, §5
smiles,measurement,setting,value
CC(C)C1C2CCC1c1c(NC(=O)c3cn(C)nc3C(F)F)cccc12 (centres unmarked) [Isopyrazam],IC50,[1],5 ± 0.3 nM
same,Minimal selective concentration (MSC),[2],Isopyrazam 3 µM (MSC)
same,Resistance Factors (RFs) in vitro,[3],8.1
same,Resistance Factors (RFs) in vitro,[4],11.1
same,Resistance Factors (RFs) in vitro,[5],95.0
same,Resistance Factors (RFs) in vitro,[6],3248.5
same,Resistance Factors (RFs) in vitro,[7],82.5
same,Resistance Factors (RFs) in vitro,[8],15.7
same,Resistance Factors (RFs) in vitro,SDH C_V88D (strain Ol50),140.4
same,Resistance Factors (RFs) in vitro,[9],88.3
same,Resistance Factors (RFs) in vitro,[10],142.6
same,Resistance Factors (RFs) in vitro,[11],18.2
same,Resistance Factors (RFs) in vitro,[12],583.2
same,Resistance Factors (RFs) in vitro,SDH C_S83G (strain Flu1),38.6
same,Resistance Factors (RFs) in vitro,[13],1.2
same,Resistance Factors (RFs) in vitro,[14],7.0
same,Resistance Factors (RFs) in vitro,[15],89.5
same,Resistance Factors (RFs) in vitro,[16],3.6
same,Resistance Factors (RFs) in vitro,[17],145.3
same,Resistance Factors (RFs) in vitro,SDH C_A84V (strain Flu4),3.1
same,Resistance Factors (RFs) in vitro,SDH C_N86K (strain Izm7),849.9
same,Resistance Factors (RFs) in vitro,[18],4095 and 4095.5
same,Resistance Factors (RFs) in vitro,[19],56.4
same,Resistance Factors (RFs) in vitro,[20],1.8
same,Resistance Factors (RFs) in vitro,[21],35.3
same,Resistance Factors (RFs) in vitro,[22],34.6
